# Laboratory results taken from patent EP0447703A1, “Hetero polycyclic biocidal compounds, their synthesis and intermediates therefor,formulations containing them and their use in medicine” (THE WELLCOME FOUNDATION LIMITED, priority 1990, dated 1991).
# Counter-ions that a name gives are not always drawn.
# Experiments:
# [1] = LD20 determined in the P388/0 test; type: in vivo
# Protocol: (§1) CD2-F₁ mice, of the same sex weighing within 20+3g, are used for this test. Control and test animals are injected intraperitoneally with a suspension of 10⁶ viable P388/O tumour cells on day 0. In each test several dose levels which bracket the LD₂₀ for the compound are evaluated; each dose level group contains 6 animals. The test compounds are prepared either in physiologic saline containing 0.05% Tween 80 or distilled water containing 5% dextrose and are administered intraperitoneally on days, 1, 5, and 9 relative to tumor implant. Doses are on a mg/kg basis according to individual animals' body weights. the day of death for each animal is recorded, the median identified for each group and the ratios of median survival time for treated (T)/control (C) groups are calculated. The criterion for activity is T/C x 100 ≧120%.
# P388/O tumour cells = assay: Lymphocytic Leukemia P388/0 Test; type: in vivo, CD2-F₁ mice; conditions: for 30-Day Survivors: at optimal dose, survivors per 6 animals of the dose group; for % T/C*: ratio of median survival time treated/control x 100 at optimal dose, excluding 30 day survivors, criterion for activity T/C x 100 ≧120%
# From the text: Methods for evaluating the antitumor activity of these compounds are essentially those used in the Tumour Panel by the Development Therapeutics Program, Division of Cancer Treatment, National Cancer Institute, A. Goldin et al., Methods in Cancer Research, Vol. XVI, p.165, Academic Press (1979). Some modifications, in dose level and schedule have been made to increase the testing efficiency.
# as §1
# [2] = mice, intraperitoneally on days 1, 5 and 9
smiles,measurement,setting,value
"Cl.Cn1c2ccccc2c2oc3c(CNC(C)(CO)CO)cccc3c21 [Example 1E, 2-Methyl-2-(((10-methyl-10H-benzofuro(3,2-b)indol-6-yl)methyl)amino)-1,3-propanediol Hydrochloride]",LD20,[1]; [2],150 mg/kg
same,30-Day Survivors,P388/O tumour cells,0/6
same,% T/C*,P388/O tumour cells,210%
"Cn1c2ccccc2c2cc(CNC(C)(CO)CO)c3sccc3c21 [Example 2C, 2-Methyl-2-(((10-methyl-10H-thieno(3,2-a)carbazol-4-yl)methyl)amino)-1,3-propanediol methanesulfonate]",LD20,"[1]; mouse, in vivo, ip",375 mg/kg
same,30-Day Survivors,P388/O tumour cells,0/6
same,% T/C*,P388/O tumour cells,195%
"Cn1c2ccccc2c2ccc3sc(CNC(C)(CO)CO)cc3c21 [Example 3B, 2-Methyl-2-(((10-methyl-10H-thieno(3,2-a)carbazol-2-yl)methyl)amino)-1,3-propanediol methanesulfonate]",LD20,"[1]; mouse, in vivo, ip",375 mg/kg
same,30-Day Survivors,P388/O tumour cells,0/6
same,% T/C*,P388/O tumour cells,195%
"CC(CO)(CO)NCc1ccc2c(c1)oc1ccc3occc3c12.Cl [Example 4M, 2(((Benzofuro(5,4-b)benzofuran-8-yl)methyl)amino)-2-methyl-1,3-propanediol Hydrochloride]",LD20,[1]; [2],>450 mg/kg
same,30-Day Survivors,P388/O tumour cells,0/6
same,% T/C*,P388/O tumour cells,117%
"CC(CO)(CO)NCc1ccc2oc3ccc4occc4c3c2c1.Cl [Example 5E, 2-(((Benzofuro(5,4-b)benzofuran-9-yl)methyl)amino)-2-methyl-1,3-propanediol Hydrochloride]",LD20,[1]; [2],175 mg/kg
same,30-Day Survivors,P388/O tumour cells,0/6
same,% T/C*,P388/O tumour cells,117%
"CC(CO)(CO)NCc1cc2oc3ccccc3c2c2ccoc12.Cl [Example 6E, 2-(((Benzofuro(5,4-b)benzofuran-4-yl)methyl)amino)-2-methyl-1,3-propanediol Hydrochloride]",LD20,[1]; [2],60 mg/kg
same,30-Day Survivors,P388/O tumour cells,1/6
same,% T/C*,P388/O tumour cells,213%
"CC(CO)(CO)NCc1cc2c(ccc3oc4ccccc4c32)o1.Cl [Example 7B, 2-(((Benzofuro(5,4-b)benzofuran-2-yl)methyl)amino)-2-methyl-1,3-propanediol hydrochloride]",LD20,[1]; [2],175 mg/kg
same,30-Day Survivors,P388/O tumour cells,0/6
same,% T/C*,P388/O tumour cells,138%
"CC(CO)(CO)NCc1ccc2oc3cc4ccoc4cc3c2c1.Cl [Example 8H, 2(((Benzofuro(5,6-b)benzofuran-8-yl)methyl)amino)-2-methyl-1,3-propanediol Hydrochloride]",LD20,[1]; [2],300 mg/kg
same,30-Day Survivors,P388/O tumour cells,0/6
same,% T/C*,P388/O tumour cells,200%
"CC(CO)(CO)NCc1c2ccoc2cc2c1oc1ccccc12.Cl [Example 9E, 2-(((Benzofuro(5,6-b)benzofuran-4-yl)methyl)amino)-2-methyl 1,3-propanediol Hydrochloride]",LD20,[1]; [2],75 mg/kg
same,30-Day Survivors,P388/O tumour cells,0/6
same,% T/C*,P388/O tumour cells,192%
"CC(CO)(CO)NCc1cc2cc3oc4ccccc4c3cc2o1.Cl [Example 10B, 2-(((Benzofuro(5,6-b)benzofuran-2-yl)methyl)amino)-2-methyl-1,3-propanediol Hydrochloride]",LD20,[1]; [2],>675 mg/kg
same,30-Day Survivors,P388/O tumour cells,0/6
same,% T/C*,P388/O tumour cells,100%
"Cl.Cn1cc(CNC(C)(CO)CO)c2ccc3sc4ccccc4c3c21 [Example 11E, 2-Methyl-2-(((1-methyl-1H-[1]benzothieno[2,3]indol-3-yl)methyl)amino)-1,3-propanediol Hydrochloride]",LD20,[1]; [2],250 mg/kg
same,30-Day Survivors,P388/O tumour cells,0/6
same,% T/C*,P388/O tumour cells,135%
"CCn1c2ccccc2c2c3c(ccc21)c(CNC(C)(CO)CO)cn3C [Example 12C, 2-(((6-Ethyl-1,6-dihydro-1-methylpyrrolo[3,2-c]carbazol-3-yl)methyl)-amino)-2-methyl-1,3-propanediol Hydrochloride 0.6 H₂O]",LD20,"[1]; mouse, in vivo, ip",100 mg/kg
same,30-Day Survivors,P388/O tumour cells,0/6
same,% T/C*,P388/O tumour cells,113%
"Cl.Cn1cc(CNC(C)(CO)CO)c2ccc3oc4ccccc4c3c21 [Example 13E, 2-Methyl-2-(((1-methyl-1H-benzofuro[2,3-g]indole-3-yl)methyl)amino)-1,3-propanediol Hydrochloride]",LD20,[1]; [2],115 mg/kg
same,30-Day Survivors,P388/O tumour cells,0/6
same,% T/C*,P388/O tumour cells,120%
"Cl.Cn1cc(CNC(C)(CO)CO)c2c3sc4ccccc4c3ccc21 [Example 14B, 2-Methyl-2-(((3-methyl-3H-[1]benzothieno[2,3-e]indol-1-yl)methyl)amino)-1,3-propanediol Hydrochloride]",LD20,[1]; [2],150 mg/kg
same,30-Day Survivors,P388/O tumour cells,0/6
same,% T/C*,P388/O tumour cells,215%
"Cn1c2cccc(CNC(C)(CO)CO)c2c2sc3ccccc3c21 [Example 15D, 2-(((10-Methyl-10H-[1]benzothieno[3,2-b]indol-6-yl)methyl)amino)-2-methyl-1,3-propanediol Hydrochloride]",LD20,"[1]; mouse, in vivo, ip",225 mg/kg
same,30-Day Survivors,P388/O tumour cells,5/6
same,% T/C*,P388/O tumour cells,140%
"Cn1c2ccccc2c2sc3cc(CNC(C)(CO)CO)ccc3c21 [Example 16, 2-(((10-Methyl-10H-[1]benzothieno[3,2-b]indol-3-yl)methyl)amino)-2-methyl-1,3-propanediol hydrochloride]",LD20,"[1]; mouse, in vivo, ip",250 mg/kg
same,30-Day Survivors,P388/O tumour cells,0/6
same,% T/C*,P388/O tumour cells,170%
